# Key:
# [1] = Chemical and physical stability of SCY-078 salts on storage (25° C./60% RH, 40° C./75% RH, 60° C.); assay type: physicochemical
# Source text: For all compounds tested other than the trifluoroacetate salts (Type A and B) and the HCl Type I and II salts, the conditions and parameters used for measuring solubility are shown in Table 2A and for measuring stability are showing in Table 3A. The conditions and parameters used for the solubility of the trifluoroacetate salts (Type A and B) and the HCl Type I and II salts are shown in Table 2B and for stability are shown in Table 3B.
# [2] = Kinetic solubility of SCY-078 freebase (MeOH desolvate, amorphous freebase); assay type: physicochemical; settings: for kinetic solubility (in words): room temperature; for Form: residual solid by XRPD
# Description: Kinetic Solubility of SCY-078 Freebase: The kinetic solubility of SCY-078 MeOH desolvate and SCY-078 amorphous freebase was evaluated in SGF media, FaSSIF media, FeSSIF media, dextrose buffer (pH 5.5), phosphate buffer (pH 6.0), and phosphate buffer (pH 7.5) at room temperature. First, solid SCY-078 MeOH desolvate or SCY-078 amorphous freebase (˜15 mg) was weighed into a 4-mL vial. Then the relevant media (3.0 mL) was added and the suspensions were stirred on a rolling incubator (25 rpm) at room temperature for 1 hour, 4 hours, and 24 hours respectively. After stirring, 0.5 mL of suspension was centrifuged and filtered (0.45 μm). The residual solids were analyzed by XRPD, and the supernatant was measured by HPLC and pH meter.
# [3] = Physical and chemical stability of trifluoroacetate Types A and B and HCl Type I for 1, 2, 4 and 8 weeks; assay type: physicochemical
# Description: High Power Liquid Chromatography (HPLC) Method—An Agilent 1260 HPLC with DAD detector was utilized to test solubility or to test purity and stability. […] System suitability was tested by injecting standard solutions five times in each sample sequence, and the relative standard deviation of the peak areas was less than 2%.
# Physical and chemical stability evaluation of trifluoroacetate Type A, trifluoroacetate Type B, and HCl Type I was performed at 25° C./60% RH, 40° C./75% RH and 60° C. for 1, 2, 4 and 8 weeks. In the experiments, approximately 20 mg of solid was placed into a 1.5-mL glass vial. The vials were stored under 25° C./60% RH (uncapped), 40° C./75% RH (uncapped) and 60° C. (capped) conditions for 8 weeks. XRPD analysis was then employed to check the crystalline form of the solid, and HPLC was utilized to determine the purity profile at 1, 2, 4 and 8 weeks. […] The solid form change of trifluoroacetate Type A at 2 and 4 weeks was postulated to the air-exposure when the sample was taken out for XRPD characterization.
# [4] = Kinetic solubility of trifluoroacetate Types A and B and HCl Type I (alternative procedure: SGF, FaSSIF and FeSSIF alternative media, acetate pH 5.5, phosphate pH 6.0 alternative media); settings: residual solid by XRPD
# Description: An alternative media (“FaSSIF alternative media”) was used to study the trifluoroacetate salts (Type A and B) and the HCl Type I salt. More specifically, the media was prepared by weighing 0.17 g of sodium phosphate monobasic (NaH2PO4, anhydrous), 0.021 g of sodium hydroxide, and 0.31 g of sodium chloride into a 50-mL volumetric flask and was dissolve with approximately 48 mL of purified water. The pH was adjusted to exactly 6.5 using 1 M HCl or 1 M NaOH and diluted to volume with purified water. 0.11 g of SIF powder was then added, stirred and sonicated until all the powder was completely dissolved. The solution was equilibrated for 2 hours at RT before use. The solution can be stored at RT for 48 hours or 4° C. for 7 days and should be equilibrated to RT before use
# An alternative media (“FeSSIF alternative media”) was used to study the trifluoroacetate salts (Type A and B) and the HCl Type I salt. More specifically, the media was prepared by transferring 0.41 mL of glacial acid and weighing 0.20 g of sodium hydroxide, 0.59 g of sodium chloride into a 50-mL volumetric flask. This was dissolved with approximately 48 mL of purified water. The pH was adjusted to exactly 5.0 using 1 M HCl or 1 M NaOH and diluted to volume with purified water. 0.56 g of SIF powder was added, stirred and sonicated until all the powder is completely dissolved. The solution can be stored at RT for 48 hours or 4° C. for 7 days and should be equilibrated to RT before use.
# Acetate Buffer (pH 5.5) Preparation—The acetate buffer (pH 5.5) used for the trifluoroacetate salts (Type A and B) and the HCl Type I salt was prepared by placing 0.60 g sodium acetate (NaC2H3O2.3H2O) in a 100-mL volumetric flask, adding 3 mL of 2 M acetic acid solution, and then adding purified water to volume.
# An alternative media (“phosphate (pH 6.0) alternative media”) was used to study the trifluoroacetate salts (Type A and B) and the HCl Type I salt. More specifically, the media was prepared by dissolving 2.72 g of 0.2 M monobasic potassium phosphate (KH2PO4) in purified water, and diluting with purified water t 100 mL. 0.8 g of 0.2 M sodium hydroxide in purified water was diluted with purified water to 100 mL. Then 50 mL of the 0.2 M monobasic potassium phosphate solution was placed in a 200-mL volumetric flask, 5.6 mL of 0.2 M sodium hydroxide solution was added, and then purified water was added to volume.
# The trifluoroacetate salts (Type A and B) and the HCl Type I salt were tested using the following alternative procedure. First, 15 mg, 36 mg or 90 mg solid was weighted into a 4-mL plastic tube, and 3 mL of relevant media was added before leaving the suspension on a rolling incubator (25 r/min). For SCF, 90 mg of solid was used. For FaSSIF, acetate buffer (pH 5.5), and phosphate buffer (pH 6.0), 15 mg solid was used. For FeSSIF, 36 mg of solid was used. 1.0 mL aliquot of the suspension was sampled for centrifugation with the supernatant submitted for HPLC and pH measurement and solid for XRPD characterization at 1 hr, 4 hr and/or 24 hrs.
# The solubility of trifluoroacetate Type A, Type B and HCl Type I was measured in SGF at ambient temperature. Approximately 90 mg of solid sample was weighted into a 4-mL centrifuge tube, and 3 mL of SGF buffer was added before leaving the suspension on a rolling incubator (25 r/min). 1.0 mL aliquot of the suspension was sampled for centrifugation (10000 rpm, 3 mins) the supernatant was analyzed by HPLC and pH measurement and solid by XRPD characterization at 1 hr, 4 hr and 24 hrs, respectively.
# The solubility of trifluoroacetate Type A, Type B and hydrochloride Type I was measured in the FaSSIF alternative media at ambient temperature. Approximately 15 mg of solid sample was weighted into a 4-mL plastic tube, and 3 mL of the media was added before leaving the suspension on a rolling incubator (25 r/min).
# [5] = 25° C./60% RH, open dish, 4 days
# [6] = 25° C./60% RH (uncapped), 1 week
# [7] = 25° C./60% RH (uncapped), 2 weeks
# [8] = 25° C./60% RH (uncapped), 4 weeks
# [9] = 25° C./60% RH (uncapped), 8 weeks
# [10] = 40° C./75% RH (uncapped), 1 week
# [11] = 40° C./75% RH (uncapped), 2 weeks
# [12] = 40° C./75% RH (uncapped), 4 weeks
# [13] = 40° C./75% RH (uncapped), 8 weeks
structure (smiles),measurement,setting,value
CC(C)[C@@H](C)[C@@]1(C)CC[C@]2(C)[C@H]3CC[C@@H]4[C@@]5(COC[C@]4(C)[C@@H](OC[C@](C)(N)C(C)(C)C)[C@H](n4ncnc4-c4ccncc4)C5)C3=CC[C@@]2(C)[C@@H]1C(=O)O.O=C(O)CC(O)(CC(=O)O)C(=O)O [Type M],Impurity % by HPLC,[1]; [5],0.39%
same,Solid form,[1]; [5],Type M
same,Impurity % by HPLC,"[1]; 40° C./75% RH, open dish, 4 days",0.00%
same,Solid form,"[1]; 40° C./75% RH, open dish, 4 days, *One peak change was observed",Type M*
same,Impurity % by HPLC,"[1]; 60° C. closed, 4 days",0.63%
same,Solid form,"[1]; 60° C. closed, 4 days",Type M
same,Impurity % by HPLC,[1]; Initial,0.42%
CC(C)[C@@H](C)[C@@]1(C)CC[C@]2(C)[C@H]3CC[C@@H]4[C@@]5(COC[C@]4(C)[C@@H](OC[C@](C)(N)C(C)(C)C)[C@H](n4ncnc4-c4ccncc4)C5)C3=CC[C@@]2(C)[C@@H]1C(=O)O [SCY-078 MeOH desolvate],kinetic solubility (in words),"[2]; FaSSIF and pH 5.5, pH 6.0, pH 7.5 buffers",only sparingly soluble
same,solid form change during solubility measurement,"[2]; FeSSIF, FaSSIF, pH 5.5 and 6.0 buffers",Solid form change was observed
same,kinetic solubility (in words),[2]; SGF and FeSSIF,high solubility
CC(C)[C@@H](C)[C@@]1(C)CC[C@]2(C)[C@H]3CC[C@@H]4[C@@]5(COC[C@]4(C)[C@@H](OC[C@](C)(N)C(C)(C)C)[C@H](n4ncnc4-c4ccncc4)C5)C3=CC[C@@]2(C)[C@@H]1C(=O)O [Amorph.],Form,"[2]; FaSSIF, 1 hour",Amorph.
same,Form,"[2]; FaSSIF, 4 hours",Amorph.
same,Form,"[2]; FaSSIF, 24 hours",Amorph.
same,Form,"[2]; FeSSIF, 1 hour",Amorph.
same,Form,"[2]; FeSSIF, 4 hours",Amorph.
same,Form,"[2]; FeSSIF, 24 hours",Amorph.
same,Form,"[2]; pH 5.5 buffer, 4 hours",Amorph.
same,Form,"[2]; pH 5.5 buffer, 24 hours",Amorph.
same,Form,"[2]; pH 6.0 buffer, 4 hours",Amorph.
same,Form,"[2]; pH 6.0 buffer, 24 hours","Amorph,"
same,Form,"[2]; pH 7.5 buffer, 4 hours",Amorph.
same,Form,"[2]; pH 7.5 buffer, 24 hours",Amorph.
CC(C)[C@@H](C)[C@@]1(C)CC[C@]2(C)[C@H]3CC[C@@H]4[C@@]5(COC[C@]4(C)[C@@H](OC[C@](C)(N)C(C)(C)C)[C@H](n4ncnc4-c4ccncc4)C5)C3=CC[C@@]2(C)[C@@H]1C(=O)O.O=C(O)C(F)(F)F [TFA Type A],HPLC purity,[3]; [6],99.9%
same,Solid form,[3]; [6],Type A
same,HPLC purity,[3]; [7],99.9%
same,Solid form,[3]; [7],Type B
same,HPLC purity,[3]; [8],99.9%
same,Solid form,[3]; [8],Type A + B
same,Solid form,"[3]; 25° C./60% RH (uncapped), 6 weeks",Type A
same,HPLC purity,[3]; [9],99.9%
same,Solid form,[3]; [9],Type A
same,HPLC purity,[3]; [10],99.9%
same,Solid form,[3]; [10],Type A
same,HPLC purity,[3]; [11],99.9%
same,Solid form,[3]; [11],Type B
same,HPLC purity,[3]; [12],99.9%
same,Solid form,[3]; [12],Type A + B
same,Solid form,"[3]; 40° C./75% RH (uncapped), 6 weeks",Type A
same,HPLC purity,[3]; [13],99.9%
same,Solid form,[3]; [13],Type A
same,HPLC purity,"[3]; 60° C. (capped), 1 week",99.9%
same,Solid form,"[3]; 60° C. (capped), 1 week",Type A
same,HPLC purity,"[3]; 60° C. (capped), 2 weeks",99.9%
same,Solid form,"[3]; 60° C. (capped), 2 weeks",Type B
same,HPLC purity,"[3]; 60° C. (capped), 4 weeks",99.9%
same,Solid form,"[3]; 60° C. (capped), 4 weeks",Type A + B
same,Solid form,"[3]; 60° C. (capped), 6 weeks",Type A
same,HPLC purity,"[3]; 60° C. (capped), 8 weeks",99.9%
same,Solid form,"[3]; 60° C. (capped), 8 weeks",Type A
same,Initial HPLC purity,[3]; Initial,99.9%
same,Form change,"[4]; FaSSIF alternative media, 1 hr",No
same,Form change,"[4]; FaSSIF alternative media, 4 hrs",No
same,Form change,"[4]; FaSSIF alternative media, 24 hrs",No
same,Form change,"[4]; SGF, 1 hr",No
same,Form change,"[4]; SGF, 4 hrs",No
same,Form change,"[4]; SGF, 24 hrs",No
same,Form change,"[4]; acetate buffer (pH 5.5), 4 hrs",No
same,Form change,"[4]; acetate buffer (pH 5.5), 24 hrs",No
CC(C)[C@@H](C)[C@@]1(C)CC[C@]2(C)[C@H]3CC[C@@H]4[C@@]5(COC[C@]4(C)[C@@H](OC[C@](C)(N)C(C)(C)C)[C@H](n4ncnc4-c4ccncc4)C5)C3=CC[C@@]2(C)[C@@H]1C(=O)O [Desolv.],Form,"[2]; FaSSIF, 1 hour",NF 1
same,Form,"[2]; FaSSIF, 4 hours",NF 1
same,Form,"[2]; FaSSIF, 24 hours",NF 1
same,Form,"[2]; FeSSIF, 1 hour",NF 1
same,Form,"[2]; FeSSIF, 4 hours",NF 1
same,Form,"[2]; FeSSIF, 24 hours",NF 1
same,Form,"[2]; pH 5.5 buffer, 4 hours",NF 2
same,Form,"[2]; pH 5.5 buffer, 24 hours",NF 2
same,Form,"[2]; pH 6.0 buffer, 4 hours",NF 1
same,Form,"[2]; pH 6.0 buffer, 24 hours",NF 3
same,Form,"[2]; pH 7.5 buffer, 4 hours",Desolv.
same,Form,"[2]; pH 7.5 buffer, 24 hours",Desolv.
CC(C)[C@@H](C)[C@@]1(C)CC[C@]2(C)[C@H]3CC[C@@H]4[C@@]5(COC[C@]4(C)[C@@H](OC[C@](C)(N)C(C)(C)C)[C@H](n4ncnc4-c4ccncc4)C5)C3=CC[C@@]2(C)[C@@H]1C(=O)O.O=C(O)CC(O)(CC(=O)O)C(=O)O [Type S],Impurity % by HPLC,"[1]; 25° C./60% RH, open dish, 1 week",0.03%
same,Solid form,"[1]; 25° C./60% RH, open dish, 1 week, **Peak shifts were observed",Type S**
same,Impurity % by HPLC,"[1]; 40° C./75% RH, open dish, 1 week",0.03%
same,Solid form,"[1]; 40° C./75% RH, open dish, 1 week, **Peak shifts were observed",Type S**
same,Solid form,"[1]; 60° C. closed, 1 week",Type S
same,Impurity % by HPLC,"[1]; 60° C., closed dish, 1 week",0.11%
same,Impurity % by HPLC,[1]; Initial,0.10%

# Source: patent US20190153024A1, “NOVEL SALTS AND POLYMORPHS OF SCY-078” (priority 2015, published 2019)
